According to US20100075907A1, “NEUROMEDIN U RECEPTOR AGONISTS AND USES THEREOF” (priority 2006, published 2010):
pEC50, pIC50: −log10 of the molar value. Non-standard residues stand in square brackets, D forms with d. Residues, ends and D or L forms follow the SMILES beside them. *: point of attachment. X1 = CC(C)CCC[C@@H](C)[C@H]1CC[C@H]2[C@@H]3CC=C4C[C@@H](OC(=O)C*)CC[C@]4(C)[C@H]3CC[C@]12C; Succinimide(1-Et,3-yl) = CCN1C(=O)CC(*)C1=O

What was measured:
Type in all cases: cell-based
mouse NMUR1-ATG = target: T1, mouse NMUR1-ATG (Mus musculus, UniProt O55040); assay: FLIPR calcium mobilization assay, mouse NMUR1-ATG; set-up: expressed in transfected cells; host or cells: FLP-In CHO or HEK-293 FLP-In cells (pcDNA5); conditions: for pIC50: functional data
T1 sequence (O55040 1-428): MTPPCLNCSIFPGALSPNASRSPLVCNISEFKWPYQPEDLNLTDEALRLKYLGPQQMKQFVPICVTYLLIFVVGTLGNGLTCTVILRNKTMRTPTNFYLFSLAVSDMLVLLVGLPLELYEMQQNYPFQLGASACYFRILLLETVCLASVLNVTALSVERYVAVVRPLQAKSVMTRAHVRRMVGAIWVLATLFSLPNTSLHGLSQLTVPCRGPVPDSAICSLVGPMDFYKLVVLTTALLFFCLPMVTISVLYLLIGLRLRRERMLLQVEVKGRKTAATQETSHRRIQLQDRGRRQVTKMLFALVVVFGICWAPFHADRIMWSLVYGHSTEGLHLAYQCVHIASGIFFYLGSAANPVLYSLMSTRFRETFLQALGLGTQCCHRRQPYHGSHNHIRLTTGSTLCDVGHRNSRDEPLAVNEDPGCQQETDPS
Text: (§1) Human, mouse or rat cDNAs encoding NMUR1 or NMUR2 (as described in Howard et al. Nature 406: 70-74 (2000) were subcloned in pcDNA5 (Invitrogen) and transfected into FLP-In CHO cells and HEK-293 FLP-In cells purchased from Invitrogen (Carlsbad, Calif.) using lipofectamine (Invitrogen). The Flp-In system allows integration and expression of a particular gene of interest at a specific genomic location utilizing the Flp recombinase from yeast. The transfected cells were selected by growth in medium containing 200 μg/mL hygromycin (Invitrogen). Populations were frozen at early passage numbers, and these stocks were used for further studies. Stable clones that expressed the mRNAs were identified functionally by FLIPR as well as by RT-PCR. […] Two different rodent NMUR1 cell lines were thus generated: one with the codon as predicted from the genomic databases and another cell line with an engineered methionine (ATG) as the start codon. Additionally, stable cell lines expressing the human receptors were generated in HEK-293/aeq17 cells which stably express the aequorin gene under the CMV promoter. The human NMUR2 cDNA was cloned into pcDNA3.1 and human NMUR1 was subcloned into pIRES-puro (Clontech, Mountain View, Calif.), after transfection cells were selected in media containing G418 and either hygromycin (NMUR2) or puromycin (NMUR1).
(§2) The NMU receptors signal primarily through Gαq/11 proteins; therefore calcium mobilization assays can be utilized for functional activity.
(§3) Stable cell lines expressing human and or rodent NMUR1 or human NMUR2 receptors were plated at a density of 12,000 cells per well overnight on poly-lysine coated 384-well black-walled plates. The following day, the media was removed from the plates and the cells were subsequently loaded with Fluo-3 (Molecular Probes), a calcium sensitive dye, diluted in FLIPR buffer (1× Hank's buffered saline containing 20 mM HEPES, 0.1% BSA, 2.5 mM probenecid (Sigma) and 1.6 mM TR40). All reagents are from Invitrogen unless otherwise noted. Peptide stocks were resuspended in DMSO at a stock concentration of 2 mM and diluted in FLIPR buffer on the day of the experiment to a 4 μM working stock solution.
(§4) After a 90 minute incubation at room-temperature, cell plates were loaded onto a FLIPR (Molecular Devices) to monitor cellular fluorescence (excitation=488 nm; emission=540 nm) before and after compound/peptide addition. Eight to twelve point dose responses were tested on NMUR-expressing cell lines using FLIPR with 1 μM peptide as the highest dose. The response after peptide addition was taken as the maximum fluorescence units minus the fluorescence immediately prior to stimulation for each well. EC50 values were calculated using GraphPad Prism (San Diego, Calif.) software.
(§5) In vitro responses of Neuromedin U receptor agonists (NMU1 to NMU25) in the FLIPR assay for human (Table 3), mouse (Table 4) and rat (Table 5) NMUR1 and NMUR2. EC50s are reported in nM values. Percent activity refers to the maximum response at 1 μM compared to the hNMU-25 response at the same concentration. NT=not tested.

rat NMUR2 = rat NMUR2 (Rattus norvegicus, UniProt Q9ESQ4); assay: FLIPR calcium mobilization assay, rat NMUR2; set-up: expressed in transfected cells; host or cells: FLP-In CHO or HEK-293 FLP-In cells (pcDNA5); conditions: for pIC50: functional data, rat R2; for pEC50: FLIPR
Text: as §1, §2, §3, §4, §5

hNMUR2 = hNMUR2 (Homo sapiens, UniProt Q9GZQ4); assay: FLIPR calcium mobilization assay, human NMUR2; set-up: expressed in transfected cells; host or cells: FLP-In CHO or HEK-293 FLP-In cells (pcDNA5); HEK-293/aeq17 lines (pcDNA3.1) were also made; conditions: for pEC50: FLIPR
Text: as §1, §2, §3, §4, §5

hNMUR1 = target: T2, hNMUR1 (Homo sapiens, UniProt Q9HB89); assay: FLIPR calcium mobilization assay, human NMUR1; set-up: expressed in transfected cells; host or cells: FLP-In CHO or HEK-293 FLP-In cells (pcDNA5); HEK-293/aeq17 lines (pIRES-puro) were also made
T2 sequence (Q9HB89 1-426): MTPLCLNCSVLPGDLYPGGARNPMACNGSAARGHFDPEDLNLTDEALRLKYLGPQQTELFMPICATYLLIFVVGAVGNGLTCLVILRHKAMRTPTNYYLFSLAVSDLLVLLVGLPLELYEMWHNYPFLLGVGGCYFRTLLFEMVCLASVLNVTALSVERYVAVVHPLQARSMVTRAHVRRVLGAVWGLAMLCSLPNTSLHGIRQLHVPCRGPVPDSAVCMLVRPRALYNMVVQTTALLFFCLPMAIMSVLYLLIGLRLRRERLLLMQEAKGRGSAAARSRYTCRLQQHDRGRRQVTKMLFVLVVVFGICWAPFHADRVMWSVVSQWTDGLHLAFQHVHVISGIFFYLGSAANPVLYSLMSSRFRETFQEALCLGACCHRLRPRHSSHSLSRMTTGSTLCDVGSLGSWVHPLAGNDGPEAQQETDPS
Text: as §1, §2, §3, §4, §5

[1] = functional, mouse R1-ATG, relative to native hNMU responses
[2] = functional, rat R2, relative to native hNMU responses
[3] = functional, human R2, relative to native hNMU responses
[4] = functional, human R1, relative to native hNMU responses
[5] = maximum response at 1 μM compared to hNMU-25, mouse NMUR1-ATG
[6] = maximum response at 1 μM compared to hNMU-25, rat NMUR2
[7] = maximum response at 1 μM compared to hNMU-25, human NMUR2
[8] = maximum response at 1 μM compared to hNMU-25 response at same concentration, human NMUR1

Chain of rat NMUR2 (Q9ESQ4 whole entry): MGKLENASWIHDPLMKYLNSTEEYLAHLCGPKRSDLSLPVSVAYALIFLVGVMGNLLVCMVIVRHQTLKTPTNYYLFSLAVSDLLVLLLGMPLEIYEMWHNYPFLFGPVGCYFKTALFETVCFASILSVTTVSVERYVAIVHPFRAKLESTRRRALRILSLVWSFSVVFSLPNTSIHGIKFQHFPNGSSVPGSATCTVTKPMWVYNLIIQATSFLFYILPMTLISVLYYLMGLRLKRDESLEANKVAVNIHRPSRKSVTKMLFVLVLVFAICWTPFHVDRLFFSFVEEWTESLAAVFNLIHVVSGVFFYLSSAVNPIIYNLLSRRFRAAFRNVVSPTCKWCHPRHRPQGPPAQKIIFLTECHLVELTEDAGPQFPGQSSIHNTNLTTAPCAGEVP
Chain of hNMUR2 (Q9GZQ4 whole entry): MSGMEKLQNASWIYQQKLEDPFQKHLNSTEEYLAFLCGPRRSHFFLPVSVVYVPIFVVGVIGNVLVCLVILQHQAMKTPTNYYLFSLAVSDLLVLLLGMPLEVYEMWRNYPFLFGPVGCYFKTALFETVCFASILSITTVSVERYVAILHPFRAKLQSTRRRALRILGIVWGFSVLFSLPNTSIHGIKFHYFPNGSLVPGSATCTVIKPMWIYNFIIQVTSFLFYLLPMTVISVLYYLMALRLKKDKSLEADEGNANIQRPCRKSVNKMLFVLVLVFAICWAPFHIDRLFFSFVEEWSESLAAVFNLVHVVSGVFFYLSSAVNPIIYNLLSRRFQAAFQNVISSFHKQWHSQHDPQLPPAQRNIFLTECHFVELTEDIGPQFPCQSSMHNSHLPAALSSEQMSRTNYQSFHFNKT

| Compound | pIC50 (mouse NMUR1-ATG; mouse R1-ATG) | % Activity (mouse NMUR1-ATG; [1]) [%] | pIC50 (rat NMUR2) | % Activity (rat NMUR2; [2]) [%] | % Activity (hNMUR2; [3]) [%] | % Activity (hNMUR1; [4]) [%] | % Activity (mouse NMUR1-ATG; [5]) [%] | % Activity (rat NMUR2; [6]) [%] | pEC50 (hNMUR2; human NMUR2) | % Activity (hNMUR2; [7]) [%] | % Activity (hNMUR1; [8]) [%] | pEC50 (rat NMUR2; rat NMUR2) | pEC50 (mouse NMUR1-ATG; FLIPR, mouse NMUR1-ATG) | pEC50 (hNMUR1; FLIPR, human NMUR1) |
| --- | --- | --- | --- | --- | --- | --- | --- | --- | --- | --- | --- | --- | --- | --- |
| CC(C)C[C@@H](NC(=O)[C@H](Cc1ccccc1)NC(=O)[C@H](Cc1ccc(O)cc1)NC(=O)CNC(=O)[C@H](CCCNC(=N)N)NC(=O)[C@H](CO)NC(=O)[C@H](CCC(N)=O)NC(=O)[C@H](CO)NC(=O)[C@H](C)NC(=O)[C@H](Cc1ccccc1)NC(=O)[C@@H]1CCCN1C(=O)[C@H](CO)NC(=O)[C@H](CCC(N)=O)NC(=O)[C@H](Cc1ccccc1)NC(=O)[C@H](CCC(=O)O)NC(=O)[C@H](CCC(=O)O)NC(=O)[C@H](CC(=O)O)NC(=O)[C@@H](NC(=O)[C@H](CCCNC(=N)N)NC(=O)[C@@H](N)Cc1ccccc1)C(C)C)C(=O)N[C@@H](Cc1c[nH]c2ccccc12)C(=O)N[C@@H](CCCNC(=N)N)C(=O)N1CCC[C@H]1C(=O)N[C@@H](CCCNC(=N)N)C(=O)N[C@@H](CC(N)=O)C(N)=O [Agonist H] (H-FRVDEEFQSPFASQSRGYF[dL]WRPRN-NH2; N-terminus assumed) | 7.60 | 90 | < 6.00 | 42 | 0 | 90 | – | – | – | – | – | – | – | – |
| CCN1C(=O)CC(SC[C@H](NC(C)=O)C(=O)NCC(=O)N[C@@H](Cc2ccc(O)cc2)C(=O)N[C@@H](Cc2ccccc2)C(=O)N[C@@H](CC(C)C)C(=O)N[C@@H](Cc2ccccc2)C(=O)N[C@@H](CCCNC(=N)N)C(=O)N2CCC[C@H]2C(=O)N[C@@H](CCCNC(=N)N)C(=O)N[C@@H](CC(N)=O)C(N)=O)C1=O (stereo partly shown) [NMU6] (Ac-C(Succinimide(1-Et,3-yl))GYFLFRPRN-NH2) | – | – | – | – | – | – | 100 | 100 | 8.82 | 100 | 96.7 | – | – | – |
| CCN1C(=O)CC(SC[C@H](NC(C)=O)C(=O)N[C@@H](Cc2ccccc2)C(=O)N[C@@H](CCCNC(=N)N)C(=O)N[C@H](C(=O)N[C@@H](CC(=O)O)C(=O)N[C@@H](CCC(=O)O)C(=O)N[C@@H](CCC(=O)O)C(=O)N[C@@H](Cc2ccccc2)C(=O)N[C@@H](CCC(N)=O)C(=O)N[C@@H](CO)C(=O)N2CCC[C@H]2C(=O)N[C@@H](Cc2ccccc2)C(=O)N[C@@H](C)C(=O)N[C@@H](CO)C(=O)N[C@@H](CCC(N)=O)C(=O)N[C@@H](CO)C(=O)N[C@@H](CCCNC(=N)N)C(=O)NCC(=O)N[C@@H](Cc2ccc(O)cc2)C(=O)N[C@@H](Cc2ccccc2)C(=O)N[C@@H](CC(C)C)C(=O)N[C@@H](Cc2ccccc2)C(=O)N[C@@H](CCCNC(=N)N)C(=O)N2CCC[C@H]2C(=O)N[C@@H](CCCNC(=N)N)C(=O)N[C@@H](CC(N)=O)C(N)=O)C(C)C)C1=O (stereo partly shown) [NMU8] (Ac-C(Succinimide(1-Et,3-yl))FRVDEEFQSPFASQSRGYFLFRPRN-NH2) | – | – | – | – | – | – | 100 | 94.7 | – | 100 | 99.1 | – | – | – |
| CC(=O)N[C@@H](CSCC(=O)O[C@H]1CC[C@@]2(C)C(=CC[C@H]3[C@@H]4CC[C@H]([C@H](C)CCCC(C)C)[C@@]4(C)CC[C@@H]32)C1)C(=O)NCC(=O)N[C@@H](Cc1ccc(O)cc1)C(=O)N[C@@H](Cc1ccccc1)C(=O)N[C@@H](CC(C)C)C(=O)N[C@@H](Cc1ccccc1)C(=O)N[C@@H](CCCNC(=N)N)C(=O)N1CCC[C@H]1C(=O)N[C@@H](CCCNC(=N)N)C(=O)N[C@@H](CC(N)=O)C(N)=O [NMU11] (Ac-C(X1)GYFLFRPRN-NH2) | – | – | – | – | – | – | 81.3 | 33.2 | – | 37.3 | 20.6 | – | – | – |
| CCN1C(=O)CC(SC[C@H](NC(C)=O)C(=O)N[C@@H](Cc2ccccc2)C(=O)N[C@@H](CCCNC(=N)N)C(=O)N[C@H](C(=O)N[C@@H](CC(=O)O)C(=O)N[C@@H](CCC(=O)O)C(=O)N[C@@H](CCC(=O)O)C(=O)N[C@@H](Cc2ccccc2)C(=O)N[C@@H](CCC(N)=O)C(=O)N[C@@H](CO)C(=O)N2CCC[C@H]2C(=O)N[C@@H](Cc2ccccc2)C(=O)N[C@@H](C)C(=O)N[C@@H](CO)C(=O)N[C@@H](CCC(N)=O)C(=O)N[C@@H](CO)C(=O)N[C@@H](CCCNC(=N)N)C(=O)NCC(=O)N[C@@H](Cc2ccc(O)cc2)C(=O)N[C@@H](Cc2ccccc2)C(=O)N[C@H](C)C(=O)N[C@@H](Cc2c[nH]c3ccccc23)C(=O)N[C@@H](CCCNC(=N)N)C(=O)N2CCC[C@H]2C(=O)N[C@@H](CCCNC(=N)N)C(=O)N[C@@H](CC(N)=O)C(N)=O)C(C)C)C1=O (stereo partly shown) [NMU13] (Ac-C(Succinimide(1-Et,3-yl))FRVDEEFQSPFASQSRGYF[dA]WRPRN-NH2) | – | 96 | < 6.00 | 24 | 0 | 91 | 98.6 | 0.0 | < 6.00 | 0.0 | 100 | < 6.00 | – | – |
| Ac-C4-C4-FRVDEEFQSPFASQSRGYFLFRPRN-CONH2 ({Ac-C(PEG 20 kDa)-C(PEG 20 kDa)}-FRVDEEFQSPFASQSRGYFLFRPRN-NH2) [NMU23, C4 = Cys(PEG)20 kDa] | – | – | – | – | – | – | – | 90.2 | – | – | 66.9 | 7.32 | 7.85 | 6.52 |
| H-FRVDEEFQSPFASQSRGYFLFRPRN-NH2 [hNMU-25, reference compound] | 9.05 | – | 8.80 | – | – | – | – | – | – | – | – | – | – | – |
